Laboratory results as given in patent EP1136554A1, “ATP binding cassette transporter 1 (ABC1) gene polymorphisms and uses thereof for the diagnosis and treatment of lipid disorders, cardiovascular diseases and inflammatory diseases” (Bayer Aktiengesellschaft, priority 2000, dated 2001).

Columns and labels:
neutral sphingomyelinase = assay: Ceramide formation from sphingomyelin; type: cell-based; details: result in words
IL-1β secretion = assay: IL-1β processing and secretion; type: cell-based; details: result in words
human fibroblasts = assay: Cell cycle arrest in fibroblasts; type: cell-based; details: result in words
mononuclear phagocytes [1] = assay: ApoA-I mediated cellular phospholipid efflux (3H-choline labelled phospholipids); type: cell-based, Human; details: men and women, percent of basal unstimulated efflux
Experimental: Cellular Lipid Efflux. Human peripheral blood cells were isolated from lithium-heparin treated blood samples of adult, healthy volunteers. The peripheral blood mononuclear cell fraction was separated by density gradient centrifugation over Ficoll-Histopaque […] (Sigma). Cells positive for CD2, CD7, CD16, CD19 and CD56 were removed by appropriate magnetic beads (Dynal) leaving > 80% pure monocytes. Isolated monocytes were then cultured at a density of 1.5x10^5 cells/mL in polystyrene culture dishes (100x15mm Petri dish, Falcon) in a serum-free macrophage medium (Macrophage-SFM, Gibco Life Technologies) supplemented with 50ng/mL human recombinant M-CSF (R&D Systems). After an overnight incubation cells were cholesterol loaded for 24 hrs by addition of enzymatically modified LDL (E-LDL; 40 µg/ml), which was prepared as previously described (31). The incubation medium was further supplemented with ^14C-cholesterol (1.5 µCi/ml) and ^3H-choline (10µCi/ml) in order to label cellular cholesterol and choline containing phospholipids. In a subset of experiments cells were stimulated with 10 µM forskolin during the labeling period. After 24 hrs monocytes were washed and incubated for 17 hrs with or without 10 µg/ml ApoA-I (Sigma) in macrophage medium containing 0.1 % bovine serum albumin and 50ng/mL M-CSF. After incubation the media were removed and centrifuged at 800 x g to precipitate any detached cells. Cells were lysed in 0.2% SDS. Lipids were extracted by liquid extraction according to the method of Bligh and Dyer (13). ^3H and ^14C radioactivities of the total lipid extracts were measured by liquid scintillation counting in order to distinguish between ^3H labeled phospholipids and ^14C-cholesterol. Lipid efflux was calculated as percentage of disintegrations per minute (dpm) in medium divided by the sum of dpm recovered from medium and cells. The ApoA-I specific efflux is expressed a percent of basal unstimulated efflux observed in serum-free macrophage medium without ApoA-I.

mononuclear phagocytes [2] = assay: ApoA-I mediated cellular cholesterol efflux (14C-cholesterol, E-LDL loaded monocytes); type: cell-based, Human; details: men and women, percent of basal unstimulated efflux
Experimental: Cellular Lipid Efflux. Human peripheral blood cells were isolated from lithium-heparin treated blood samples of adult, healthy volunteers. The peripheral blood mononuclear cell fraction was separated by density gradient centrifugation over Ficoll-Histopaque […] (Sigma). Cells positive for CD2, CD7, CD16, CD19 and CD56 were removed by appropriate magnetic beads (Dynal) leaving > 80% pure monocytes. Isolated monocytes were then cultured at a density of 1.5x10^5 cells/mL in polystyrene culture dishes (100x15mm Petri dish, Falcon) in a serum-free macrophage medium (Macrophage-SFM, Gibco Life Technologies) supplemented with 50ng/mL human recombinant M-CSF (R&D Systems). After an overnight incubation cells were cholesterol loaded for 24 hrs by addition of enzymatically modified LDL (E-LDL; 40 µg/ml), which was prepared as previously described (31). […] Lipids were extracted by liquid extraction according to the method of Bligh and Dyer (13). ^3H and ^14C radioactivities of the total lipid extracts were measured by liquid scintillation counting in order to distinguish between ^3H labeled phospholipids and ^14C-cholesterol. Lipid efflux was calculated as percentage of disintegrations per minute (dpm) in medium divided by the sum of dpm recovered from medium and cells. […]

SMILES | ceramide formation from sphingomyelin mediated by neutral sphingomyelinase (neutral sphingomyelinase) | Caspase I mediated processing of pro-IL-1β (IL-1β secretion) | release of mature IL-1β (IL-1β secretion) | G2-phase cell cycle arrest (human fibroblasts) | Phospholipid efflux: ApoA-I [10 µg/ml]+ 24 h pretreatment with forskolin [10 µM] (mononuclear phagocytes [1]; 596A/A) [%] | Phospholipid efflux: ApoA-I [10 µg/ml]+ 24 h pretreatment with forskolin [10 µM] (mononuclear phagocytes [1]; 2589G/G) [%] | Phospholipid efflux: ApoA-I [10 µg/ml]+ 24 h pretreatment with forskolin [10 µM] (mononuclear phagocytes [1]; wt/wt 596G/G, 2589A/A) [%] | Cholesterol efflux: ApoA-I [10 µg/ml]+ 24 h pretreatment with forskolin [10 µM] (mononuclear phagocytes [2]; 596A/A) [%] | Cholesterol efflux: ApoA-I [10 µg/ml]+ 24 h pretreatment with forskolin [10 µM] (mononuclear phagocytes [2]; wt/wt 596G/G, 2589A/A) [%]
COc1ccc(Cl)cc1C(=O)NCCc1ccc(S(=O)(=O)NC(=O)NC2CCCCC2)cc1 [glyburide] | inhibits | inhibits | inhibits | releases human fibroblasts from G2-phase cell cycle arrest | – | – | – | – | –
C=C[C@@]1(C)CC(=O)[C@]2(O)[C@@]3(C)[C@@H](O)CCC(C)(C)[C@@H]3[C@H](O)[C@H](OC(C)=O)[C@@]2(C)O1 [forskolin] | – | – | – | – | 136.7 ± 12.8 | 124.5 ± 25.8 | 135.4 ± 20.2 | 126.7 ± 37.4 | 121.8 ± 16.4
